Data on 17 molecules can be found in patent publication US9604940B2 (Chroma Therapeutics Ltd., priority 2012, dated 2017).

The target in assay [1] is T1, CSF1R (FMS) (Homo sapiens, UniProt P07333).
T1 construct: purchased Invitrogen (Paisley, UK)
The assay is described as follows: CSF1R (FMS) kinase activity, Z'-LYTE biochemical assay (Invitrogen). The following applies: ATP at or close to Km, 60 minute reaction at room temperature, read-out: Inhibitor activity versus CSF-1. On the procedure: CSF1R (FMS) Kinase Activity
The ability of compounds to inhibit CSF1R (FMS) kinase activity was measured in an assay performed by Invitrogen (Paisley, UK). The Z′-LYTE™ biochemical assay employs a fluorescence-based, coupled-enzyme format and is based on the differential sensitivity of phosphorylated and non-phosphorylated peptides to proteolytic cleavage. The peptide substrate is labelled with two fluorophores—one at each end—that make up a FRET pair. In the primary reaction, the kinase transfers the gamma-phosphate of ATP to a single […] residue in a synthetic FRET-peptide. In the secondary reaction, a site-specific protease recognizes and cleaves non-phosphorylated FRET-peptides. Phosphorylation of FRET-peptides suppresses cleavage by the Development Reagent. Cleavage disrupts FRET between the donor (i.e. coumarin) and acceptor (i.e. fluorescein) fluorophores on the FRET-peptide, whereas uncleaved, phosphorylated FRET-peptides maintain FRET. A […] method, which calculates the ratio (the Emission Ratio) of donor emission to acceptor emission after excitation of the donor fluorophore at 400 nm, is used to quantitate reaction progress.
The final 10 μL Kinase Reaction consists of 0.12-12.3 ng CSF1R (FMS), 2 μM Tyr 01 Peptide and ATP in 50 mM HEPES pH 7.5, 0.01% BRIJ-35, 10 mM MgCl2, 1 mM EGTA. The assay is performed at an ATP concentration at, or close to, the Km. After the 60 minute Kinase Reaction incubation at room temperature, 5 μL of a 1:256 dilution of Development Reagent is added. The assay plate is incubated for a further 60 minutes at room temperature and read on a fluorescence plate reader.
Duplicate data points are generated from a ⅓ log dilution series of a stock solution of test compound in DMSO. Nine dilutions steps are made from a top concentration of 10 mM, and a ‘no compound’ blank is included. Data is collected and analysed using XLfit software from IDBS. The dose response curve is curve fitted to model number 205 (sigmoidal dose-response model). From the curve generated, the concentration giving 50% inhibition is determined and reported.

Assay [2] deals with MCP-1. The assay is described as follows: MCSF-stimulation of human whole blood, MCP-1 levels by sandwich ELISA. The class given is cell-based. The following applies: inhibitor 2 hours before MCSF 50 ng/ml, 22 hrs, MCP-1 in cell-free supernatants, read-out: Inhibitor activity versus MCP-1. The procedure:
Macrophage Colony-Stimulating Factor (MCSF)-Stimulation of Human Whole Blood
Whole blood was taken by venous puncture using heparinised vacutainers (Becton Dickinson) and diluted in an equal volume of RPMI1640 tissue culture media (Sigma). 100 μl was plated in V-bottomed 96 well tissue culture treated plates. 2 hours after the addition of the inhibitor in 100 μl of RPMI1640 media, the blood was stimulated with MCSF (Peprotech: #300-25-10 uG) at a final concentration of 50 ng/ml and incubated at 37° C. in 5% CO2 for 22 hrs. MCP-1 levels were measured from cell-free supernatants by sandwich ELISA developed from MCP-1/CCL2 Duoset (R&D Systems #DY279). Additional reagents required for ELISA were purchased from Sigma, (BSA: A3059, 10×PBS: D1408, Tween20: P5927) R&D Systems, (colour reagent: #DY999 and stop solution: #DY994) and Costar (96-well EIA plates: #2592). Assays were carried out following the manufacturer's instructions with the following modifications: Cell-free supernatants were diluted 30:70 in reagent diluent before assay. All incubations except capture antibody were carried out with shaking at 550 rpm. 3 washes were carried out between steps, and incubation times were blocking 1.5 hr, sample/standard and detection antibody incubations 2 hr, HRP incubation 30 min, colour development 20 min. • IC50 values were allocated to one of five ranges as follows: • Range A: IC50<100 nM • Range B: 100 nM<IC50<300 nM • Range C: 300 nM<1050<1000 nM • Range D: 1000 nM<IC50<5000 nM • Range E: IC50>5000 nM • NT=not tested

Bounds are passed on as bounds.

T1 sequence (P07333 20-972): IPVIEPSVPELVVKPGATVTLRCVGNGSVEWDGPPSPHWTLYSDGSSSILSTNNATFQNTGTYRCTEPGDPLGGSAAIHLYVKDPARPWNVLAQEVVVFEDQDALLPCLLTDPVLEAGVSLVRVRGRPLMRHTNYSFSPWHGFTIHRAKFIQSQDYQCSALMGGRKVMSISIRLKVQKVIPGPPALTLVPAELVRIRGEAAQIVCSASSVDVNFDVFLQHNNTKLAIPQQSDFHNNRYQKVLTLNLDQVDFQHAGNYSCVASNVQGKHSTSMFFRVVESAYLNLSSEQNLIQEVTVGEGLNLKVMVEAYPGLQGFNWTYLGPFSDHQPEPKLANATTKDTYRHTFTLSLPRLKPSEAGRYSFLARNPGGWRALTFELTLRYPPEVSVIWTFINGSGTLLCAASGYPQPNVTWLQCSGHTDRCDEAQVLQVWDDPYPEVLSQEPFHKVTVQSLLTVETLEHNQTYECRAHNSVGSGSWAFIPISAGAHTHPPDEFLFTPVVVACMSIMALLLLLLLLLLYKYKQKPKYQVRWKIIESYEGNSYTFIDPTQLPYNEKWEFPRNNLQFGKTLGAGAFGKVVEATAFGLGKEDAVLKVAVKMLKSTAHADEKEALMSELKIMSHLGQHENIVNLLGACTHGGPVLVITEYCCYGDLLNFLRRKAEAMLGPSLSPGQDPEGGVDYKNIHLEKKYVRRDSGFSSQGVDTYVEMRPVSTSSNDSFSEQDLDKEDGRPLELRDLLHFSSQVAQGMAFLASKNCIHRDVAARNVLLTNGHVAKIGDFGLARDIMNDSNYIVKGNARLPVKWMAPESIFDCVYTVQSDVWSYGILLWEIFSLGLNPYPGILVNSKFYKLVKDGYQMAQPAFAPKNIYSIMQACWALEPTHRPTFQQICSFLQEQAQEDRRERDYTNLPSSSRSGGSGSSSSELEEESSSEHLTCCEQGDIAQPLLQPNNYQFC

On to `CC(C)C[C@H](NCc1cccc(-c2cnc(N)c(NCc3c(Cl)cccc3Cl)n2)c1)C(=O)OC1CCCC1` [Example 38, Cyclopentyl N-(3-{5-amino-6-[(2,6-dichlorobenzyl)amino]pyrazin-2-yl}benzyl)-L-leucinate], for which the IC50 in assay [1] and in assay [2] was greater than 5000 nM throughout.
As for `CC(C)C[C@H](NCc1cccc(-c2cnc(N)c(NCc3c(Cl)cccc3Cl)n2)c1)C(=O)OC(C)(C)C` [Example 39, tert-Butyl N-(3-{5-amino-6-[(2,6-dichlorobenzyl)amino]pyrazin-2-yl}benzyl)-L-leucinate], the IC50 in assay [1] and in assay [2] was greater than 5000 nM throughout.
Turning to `CC(C)(NCc1cccc(-c2cnc(N)c(NCc3c(Cl)cccc3Cl)n2)c1)C(=O)OC1CCCC1` [Example 40, Cyclopentyl N-(3-{5-amino-6-[(2,6-dichlorobenzyl)amino]pyrazin-2-yl}benzyl)-2-methylalaninate], the IC50 in assay [1] was greater than 5000 nM; in assay [2], 1000 to 5000 nM.
For the molecule `Nc1ncc(-c2cccc(CNC3(C(=O)OC4CCCC4)CCC3)c2)nc1NCc1c(Cl)cccc1Cl` [Example 42, Cyclopentyl 1-[(3-{5-amino-6-[(2,6-dichlorobenzyl)amino]pyrazin-2-yl}benzyl)amino]cyclobutanecarboxylate di-formate], the IC50 in assay [1] was greater than 5000 nM; in assay [2], 300 to 1000 nM.
Take `CC(C)(C)OC[C@H](NCc1cccc(-c2cnc(N)c(NCc3c(Cl)cccc3Cl)n2)c1)C(=O)OC1CCCC1` [Example 43, Cyclopentyl N-(3-{5-amino-6-[(2,6-dichlorobenzyl)amino]pyrazin-2-yl}benzyl)-O-tert-butyl-L-serinate]: the IC50 in assay [1] and in assay [2] was greater than 5000 nM in each case.
For the molecule `CC(C)(C)OC[C@H](NCc1cccc(-c2cnc(N)c(NCc3c(Cl)cccc3Cl)n2)c1)C(=O)OC(C)(C)C` [Example 44, tert-Butyl N-(3-{5-amino-6-[(2,6-dichlorobenzyl)amino]pyrazin-2-yl}benzyl)-O-tert-butyl-L-serinate], the IC50 in assay [1] and in assay [2] was greater than 5000 nM in each case.
Turning to `C[C@H](NCc1cccc(-c2cnc(N)c(NCc3c(Cl)cccc3Cl)n2)c1)C(=O)OC(C)(C)C` [Example 45, tert-Butyl N-(3-{5-amino-6-[(2,6-dichlorobenzyl)amino]pyrazin-2-yl}benzyl)-L-alaninate], the IC50 in assay [1] and in assay [2] was 1000 to 5000 nM each time.
Turning to `CC(C)(C)OC(=O)[C@H]1CC(NCc2cccc(-c3cnc(N)c(NCc4c(Cl)cccc4Cl)n3)c2)CCN1` (stereo partly drawn) [Example 46, tert-Butyl (2R)-4-[(3-{5-amino-6-[(2,6-dichlorobenzyl)amino]pyrazin-2-yl}benzyl)amino]piperidine-2-carboxylate], the IC50 was less than 100 nM in assay [1] and 300 to 1000 nM in assay [2].
Consider `CC(C)(C)OC(=O)[C@@H]1CC(NCc2cccc(-c3cnc(N)c(NCc4c(Cl)cccc4Cl)n3)c2)CCN1` (stereo partly drawn) [Example 47, tert-Butyl (2S)-4-[(3-{5-amino-6-[(2,6-dichlorobenzyl)amino]pyrazin-2-yl}benzyl)amino]piperidine-2-carboxylate di-formate], for which the IC50 in assay [1] was less than 100 nM; in assay [2] it was 300 to 1000 nM.
With `CC(C)(NCCc1cccc(-c2cnc(N)c(NCc3c(Cl)cccc3Cl)n2)c1)C(=O)OC1CCCC1` [Example 48, Cyclopentyl N-[2-(3-{5-amino-6-[(2,6-dichlorobenzyl)amino]pyrazin-2-yl}phenyl)ethyl]-2-methylalaninate], the IC50 in assay [1] is 1000 to 5000 nM; in assay [2], 300 to 1000 nM.
Consider `Nc1ncc(-c2cccc(CCNC3(C(=O)OC4CCCC4)CCC3)c2)nc1NCc1c(Cl)cccc1Cl` [Example 49, Cyclopentyl 1-{[2-(3-{5-amino-6-[(2,6-dichlorobenzyl)amino]pyrazin-2-yl}phenyl)ethyl]amino}cyclobutanecarboxylate], for which the IC50 in assay [1] and in assay [2] was 1000 to 5000 nM throughout.
Turning to `Nc1ncc(-c2cccc(CCNC3CCN[C@@H](C(=O)OC4CCCC4)C3)c2)nc1NCc1c(Cl)cccc1Cl` (stereo partly drawn) [Example 50, Cyclopentyl (2R)-4-{[2-(3-{5-amino-6-[(2,6-dichlorobenzyl)amino]pyrazin-2-yl}phenyl)ethyl]amino}piperidine-2-carboxylate], the IC50 in assay [1] was less than 100 nM; in assay [2], 100 to 300 nM.
In the case of `Nc1ncc(-c2cccc(CCNC3CCN[C@H](C(=O)OC4CCCC4)C3)c2)nc1NCc1c(Cl)cccc1Cl` (stereo partly drawn) [Example 51, Cyclopentyl (2S)-4-{[2-(3-{5-amino-6-[(2,6-dichlorobenzyl)amino]pyrazin-2-yl}phenyl)ethyl]amino}piperidine-2-carboxylate], the IC50 in assay [1] was less than 100 nM; in assay [2] it was 100 to 300 nM.
Regarding `Nc1ncc(-c2cnn(CCNC3CCN[C@@H](C(=O)OC4CCCC4)C3)c2)nc1NCc1c(Cl)cccc1Cl` (stereo partly drawn) [Example 55, Cyclopentyl (2R)-4-{[2-(4-{5-amino-6-[(2,6-dichlorobenzyl)amino]pyrazin-2-yl}-1H-pyrazol-1-yl)ethyl]amino}piperidine-2-carboxylate di-formate], the IC50 in assay [1] and in assay [2] was 100 to 300 nM each time.
`Nc1ncc(-c2cnn(CCNC3CCN[C@H](C(=O)OC4CCCC4)C3)c2)nc1NCc1c(Cl)cccc1Cl` (stereo partly drawn) [Example 56, Cyclopentyl (2S)-4-{[2-(4-{5-amino-6-[(2,6-dichlorobenzyl)amino]pyrazin-2-yl}-1H-pyrazol-1-yl)ethyl]amino}piperidine-2-carboxylate di-formate]: the IC50 in assay [1] was in the range of 100 to 300 nM; in assay [2], 300 to 1000 nM.
`CC(C)C[C@H](NCCn1cc(-c2cnc(N)c(NCc3c(Cl)cccc3Cl)n2)cn1)C(=O)OC1CCCC1` [Example 57, Cyclopentyl N-[2-(4-{5-amino-6-[(2,6-dichlorobenzyl)amino]pyrazin-2-yl}-1H-pyrazol-1-yl)ethyl]-L-leucinate]: the IC50 in assay [1] and in assay [2] was 1000 to 5000 nM in each case.
As to `CC(C)C[C@H](NCCn1cc(-c2cnc(N)c(NCc3c(Cl)cccc3Cl)n2)cn1)C(=O)OC(C)(C)C` [Example 58, tert-Butyl N-[2-(4-{5-amino-6-[(2,6-dichlorobenzyl)amino]pyrazin-2-yl}-1H-pyrazol-1-yl)ethyl]-L-leucinate], the IC50 in assay [1] and in assay [2] was greater than 5000 nM in each case.
